Test results reported in ChEMBL document CHEMBL5096158, “HIV latency reversal agents: A potential path for functional cure?” (Eur J Med Chem, 2021).

Key:
[1] = biological target: Histone deacetylase 4 (Homo sapiens, UniProt P56524); assay: Inhibition of recombinant human HDAC4 expressed in baculovirus expression system using KI-104 as substrate incubated for 3 hrs by fluorescence-based assay
[2] = biological target: T1, Protein deacetylase HDAC6 (Homo sapiens, UniProt Q9UBN7); assay: Inhibition of recombinant human HDAC6 expressed in baculovirus expression system using KI-104 as substrate incubated for 3 hrs by fluorescence-based assay
T1 sequence (Q9UBN7 whole entry): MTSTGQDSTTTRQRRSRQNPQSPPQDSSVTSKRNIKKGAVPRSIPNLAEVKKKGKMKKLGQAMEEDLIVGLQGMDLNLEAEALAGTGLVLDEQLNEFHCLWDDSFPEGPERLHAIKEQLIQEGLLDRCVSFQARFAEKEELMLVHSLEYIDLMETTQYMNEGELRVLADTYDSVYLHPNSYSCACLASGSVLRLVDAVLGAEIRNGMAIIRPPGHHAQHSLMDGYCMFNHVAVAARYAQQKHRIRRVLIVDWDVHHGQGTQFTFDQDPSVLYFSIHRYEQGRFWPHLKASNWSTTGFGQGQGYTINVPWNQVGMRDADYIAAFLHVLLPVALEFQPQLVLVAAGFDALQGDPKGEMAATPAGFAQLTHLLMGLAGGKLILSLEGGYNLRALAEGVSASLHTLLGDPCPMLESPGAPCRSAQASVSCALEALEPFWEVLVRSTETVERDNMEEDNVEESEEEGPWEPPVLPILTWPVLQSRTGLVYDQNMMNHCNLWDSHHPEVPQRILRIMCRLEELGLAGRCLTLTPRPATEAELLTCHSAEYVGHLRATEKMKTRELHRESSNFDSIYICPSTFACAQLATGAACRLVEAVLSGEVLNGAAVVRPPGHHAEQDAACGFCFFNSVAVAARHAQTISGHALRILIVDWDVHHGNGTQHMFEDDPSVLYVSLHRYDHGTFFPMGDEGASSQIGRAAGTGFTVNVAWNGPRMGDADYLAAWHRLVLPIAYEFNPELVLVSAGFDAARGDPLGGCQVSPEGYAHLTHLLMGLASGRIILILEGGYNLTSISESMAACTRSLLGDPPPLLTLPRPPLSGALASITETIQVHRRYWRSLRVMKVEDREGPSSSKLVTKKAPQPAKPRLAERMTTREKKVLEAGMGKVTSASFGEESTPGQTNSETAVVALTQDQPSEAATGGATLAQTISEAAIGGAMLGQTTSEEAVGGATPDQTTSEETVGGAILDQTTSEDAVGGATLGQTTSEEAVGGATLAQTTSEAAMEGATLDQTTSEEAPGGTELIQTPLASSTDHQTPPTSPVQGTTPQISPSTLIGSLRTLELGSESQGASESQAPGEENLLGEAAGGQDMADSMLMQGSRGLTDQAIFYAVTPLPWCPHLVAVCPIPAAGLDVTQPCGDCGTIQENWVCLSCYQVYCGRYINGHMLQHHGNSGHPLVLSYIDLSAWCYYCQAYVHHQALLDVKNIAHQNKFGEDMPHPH

[3] = system: Human immunodeficiency virus 1; assay: Reactivation of HIV-1 latency infected in GFP-fused human J-Lat 10.6 cells assessed as increase in GFP expression at 1 to 100000 nM incubated for 48 hrs by flow cytometry; format: functional; settings: dose 1-100000 nM
[4] = Cytotoxicity against human J-Lat 10.6 cells assessed as reduction in cell viability incubated for 72 hrs by CCK-8 assay; format: toxicity, cell-based
[5] = system: Human immunodeficiency virus 1; assay: Reactivation of HIV-1 latency infected in GFP-fused human J-Lat 10.6 cells assessed as increase in GFP expression incubated for 48 hrs by flow cytometry; format: functional, organism-based; settings: Human immunodeficiency virus 1, J-Lat 10.6, 48 h
[6] = system: Human immunodeficiency virus 1; assay: Reactivation of HIV-1 latency infected in GFP-fused human J-Lat C11 cells assessed as increase in GFP expression incubated for 48 hrs by flow cytometry; format: functional, organism-based; settings: Human immunodeficiency virus 1, J-Lat C11, 48 h
[7] = Cytotoxicity against human J-Lat C11 cells assessed as reduction in cell viability incubated for 72 hrs by CCK-8 assay; format: toxicity, cell-based
[8] = system: Human immunodeficiency virus 1; assay: Reactivation of HIV-1 latency infected in GFP-fused human J-Lat C11 cells assessed as increase in GFP expression at 1 to 100000 nM incubated for 48 hrs by flow cytometry; format: functional; settings: dose 1-100000 nM
[9] = system: Human immunodeficiency virus 1; assay: Reversal of HIV-1 latency infected in human U1 cells assessed as fold increase in p24 expression level at 15.6 nM incubated for 48 hrs by ELISA; format: functional
[10] = system: Human immunodeficiency virus 1; assay: Reversal of HIV-1 latency infected in human ACH-2 cells assessed as fold increase in p24 expression level at 15.6 nM incubated for 48 hrs by ELISA; format: functional, ACH-2 cell line
[11] = system: Human immunodeficiency virus 1; assay: Reversal of HIV-1 latency infected in human U1 cells assessed as fold increase in p24 expression level at 31.1 nM incubated for 48 hrs by ELISA; format: functional
[12] = Inhibition of HIV-1 latency in human CD4+ve Th cells infected NL4.3-Luc virus assessed as p24 expression level incubated for 48 hrs by v450 dye based flow cytometry; format: functional, cell-based; settings: Human immunodeficiency virus 1, CD4+ve Th
[13] = system: Human immunodeficiency virus 1; assay: Reversal of HIV-1 latency infected in human ACH-2 cells assessed as fold increase in p24 expression level at 31.1 nM incubated for 48 hrs by ELISA; format: functional, ACH-2 cell line
[14] = system: Human immunodeficiency virus 1; assay: Reversal of HIV-1 latency infected in human J-Lat Tat-GFP Clone A7 cells assessed as increase in GFP expressing cells at 100 nM incubated for 72 hrs by flow cytometry analysis relative to control; format: functional
[15] = biological target: N-lysine methyltransferase SMYD2 (Homo sapiens, UniProt Q9NRG4); assay: Inhibition of SMYD2 (unknown origin)
N-lysine methyltransferase SMYD2, sequence (Q9NRG4 whole entry): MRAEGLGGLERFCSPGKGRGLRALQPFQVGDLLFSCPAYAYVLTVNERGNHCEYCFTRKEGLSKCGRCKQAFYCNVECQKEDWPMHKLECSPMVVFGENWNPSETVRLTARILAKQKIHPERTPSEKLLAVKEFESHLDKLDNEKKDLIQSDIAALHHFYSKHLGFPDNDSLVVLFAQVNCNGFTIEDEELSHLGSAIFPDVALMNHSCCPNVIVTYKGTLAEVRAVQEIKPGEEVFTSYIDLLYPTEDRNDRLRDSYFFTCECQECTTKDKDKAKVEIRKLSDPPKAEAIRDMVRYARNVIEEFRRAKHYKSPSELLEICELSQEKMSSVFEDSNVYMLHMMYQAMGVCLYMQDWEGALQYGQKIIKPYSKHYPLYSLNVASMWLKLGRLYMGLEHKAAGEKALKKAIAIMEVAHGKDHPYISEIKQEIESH

[16] = system: Human immunodeficiency virus 1; assay: Reactivation of HIV-1 latency infected in human CD4+ve Th cells assessed as fold increase in GFP expression at 500 nM incubated for 18 hrs by flow cytometry; format: functional
[17] = system: Human immunodeficiency virus 1; assay: Reactivation of HIV-1 latency infected in human J-Lat GFP Clone A72 cells assessed as increase in GFP expression at 5 to 10 mM incubated for 18 hrs by flow cytometry; format: functional; settings: dose 5-10 mM
[18] = system: Human immunodeficiency virus 1; assay: Reversal of HIV-1 latency infected in GFP-fused human J-Lat C11 cells assessed as increase in GFP expression at 10 uM incubated for 72 hrs by flow cytometry; format: functional
[19] = system: Human immunodeficiency virus 1; assay: Reactivation of HIV-1 latency infected in human Th17 cells assessed as increase in HIV production by measuring phosphorylated S175 CDK9 levels at 1 uM incubated for 96 hrs by flow cytometry; format: functional
[20] = system: Human immunodeficiency virus 1; assay: Reactivation of HIV-1 latency infected in human Th17 cells assessed as increase in HIV production by measuring phosphorylated S175 CDK9 levels at 10 nM incubated for 96 hrs by flow cytometry; format: functional
[21] = system: Human immunodeficiency virus 1; assay: Reactivation of HIV-1 latency in GFP-fused human primary CD4+ve Th cells infected with HIV-1NL4-3 luciferase virus assessed as fold increase in GFP expression incubated for 48 hrs by luciferase luminescence analysis; format: functional
[22] = system: Human immunodeficiency virus 1; assay: Reversal of HIV-1 latency infected in GFP-fused human J-Lat 10.6 cells increase in GFP expressing cells by FACS analysis; format: functional, organism-based; settings: Human immunodeficiency virus 1, J-Lat 10.6
[23] = system: Human immunodeficiency virus 1; assay: Reactivation of HIV-1 latency in human U1 cells assessed as fold increase in p24 expression at 1 uM incubated for 24 hrs by western blot analysis; format: functional
[24] = system: Human immunodeficiency virus 1; assay: Reactivation of HIV-1 latency in human ACH-2 cells assessed as fold increase in p24 expression at 1 uM incubated for 24 hrs by western blot analysis; format: functional, ACH-2 cell line
[25] = system: Human immunodeficiency virus 1; assay: Reversal of HIV-1 latency infected in GFP-fused human J-Lat C11 cells assessed as increase in GFP expression at 2 uM incubated for 3 hrs by flow cytometry; format: functional

Histone deacetylase 4, sequence (P56524 whole entry): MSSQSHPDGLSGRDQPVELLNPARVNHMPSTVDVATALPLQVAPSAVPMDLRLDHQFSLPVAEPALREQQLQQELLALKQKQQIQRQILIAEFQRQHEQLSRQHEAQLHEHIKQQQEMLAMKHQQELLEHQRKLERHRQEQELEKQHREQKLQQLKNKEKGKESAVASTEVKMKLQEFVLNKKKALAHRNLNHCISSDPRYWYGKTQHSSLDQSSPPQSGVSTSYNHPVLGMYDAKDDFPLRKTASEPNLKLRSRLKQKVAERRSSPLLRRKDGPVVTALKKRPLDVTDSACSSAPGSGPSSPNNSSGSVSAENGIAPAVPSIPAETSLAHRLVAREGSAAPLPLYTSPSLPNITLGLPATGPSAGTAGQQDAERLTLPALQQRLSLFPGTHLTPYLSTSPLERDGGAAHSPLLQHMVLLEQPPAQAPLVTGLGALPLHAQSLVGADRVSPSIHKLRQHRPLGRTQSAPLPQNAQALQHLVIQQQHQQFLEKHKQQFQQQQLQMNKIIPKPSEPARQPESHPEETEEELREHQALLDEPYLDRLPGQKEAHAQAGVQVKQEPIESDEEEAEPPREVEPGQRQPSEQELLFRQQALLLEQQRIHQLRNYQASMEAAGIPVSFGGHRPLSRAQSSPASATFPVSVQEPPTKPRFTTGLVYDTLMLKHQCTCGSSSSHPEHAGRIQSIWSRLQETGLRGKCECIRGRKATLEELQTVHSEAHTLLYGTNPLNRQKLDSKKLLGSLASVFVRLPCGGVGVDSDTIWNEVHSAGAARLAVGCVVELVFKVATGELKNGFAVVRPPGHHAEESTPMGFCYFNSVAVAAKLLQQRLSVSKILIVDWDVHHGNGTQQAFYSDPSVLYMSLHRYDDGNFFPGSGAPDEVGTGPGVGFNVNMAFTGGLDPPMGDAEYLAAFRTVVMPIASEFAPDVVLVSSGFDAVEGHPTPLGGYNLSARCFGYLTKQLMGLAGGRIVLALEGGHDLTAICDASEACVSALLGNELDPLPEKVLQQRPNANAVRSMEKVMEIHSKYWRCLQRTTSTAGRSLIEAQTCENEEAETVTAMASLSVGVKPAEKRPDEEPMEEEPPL

Question: For `O=C(/C=C/c1cccc(S(=O)(=O)Nc2ccccc2)c1)NO` [BELINOSTAT], which EC50 [1] is on record?
Answer: Its EC50 is 115 nM.

Question: And the EC50 [2]?
Answer: Its EC50 is 82 nM.

Question: Which Activity [3] does the source give for `CCCCCCCCCCCC(=O)OCC1=C[C@H]2C(=O)[C@]3(C=C(C)[C@H](OC(=O)CC(C)C(C)C)[C@@]3(O)[C@@H]1O)[C@H](C)CC1C2C1(C)C` (stereo partly drawn) here?
Answer: The Activity was 90%.

Question: And the CC50 at 72 h [4]?
Answer: Its CC50 at 72 h is 94.2 nM.

Question: And the EC50 [5]?
Answer: Its EC50 is 4.06 nM.

Question: What about the EC50 [6] of the same compound?
Answer: The EC50 was 3.53 nM.

Question: And the CC50 at 72 h [7]?
Answer: Its CC50 at 72 h is 68.5 nM.

Question: What about the Activity [8] of the same compound?
Answer: Its Activity is 80%.

Question: For `Cc1[nH]c2ccccc2c1CCNCc1ccc(/C=C/C(=O)NO)cc1` [PANOBINOSTAT], which “fold change (FC)” value [9] is on record?
Answer: Its value is 12.8.

Question: And the “fold change (FC)” value [10]?
Answer: The value was 27.7.

Question: And the “fold change (FC)” value [11]?
Answer: The value was 19.9.

Question: And the EC50 [12]?
Answer: The EC50 was 10 nM.

Question: What about the “fold change (FC)” value [13] of the same compound?
Answer: The value was 51.8.

Question: Which Activity [14] does the source give for `CC(/C=C/C(=O)NO)=C\[C@@H](C)C(=O)c1ccc(N(C)C)cc1` [TRICHOSTATIN] here?
Answer: The Activity was 21.3%.

Question: With `N#Cc1cc(C(=O)NCCCN2CCCC2)cc(-c2ccccc2N2CCN(CCc3c[nH]c4ccccc34)CC2)c1` as the compound, how does the IC50 [15] read?
Answer: Its IC50 is 27 nM.

Question: What about the “fold change (FC)” value [16] of the same compound?
Answer: Its value is 4.

Question: And the Activity [17]?
Answer: The Activity was 30%.

Question: Which Activity [18] does the source give for `COc1ccccc1S(=O)(=O)Nc1ccc2c(c1)CN(C)C(=O)N2` here?
Answer: Its Activity is 89%.

Question: With `O=C(NCCCN1CCCC1)c1cncc(-c2ccccc2N2CCN(CCc3c[nH]c4ccccc34)CC2)c1` as the compound, how does the Activity [17] read?
Answer: Its Activity is 30%.

Question: Which Activity [19] does the source give for `CCCc1cc(C)[nH]c(=O)c1CNC(=O)c1cc(-c2ccnc(N3CCN(C)CC3)c2)cc2c1cnn2C(C)C` here?
Answer: Its Activity is 35%.

Question: And the Activity [20]?
Answer: The Activity was 20%.

Question: Which “fold change (FC)” value [21] does the source give for `O=C(/C=C/c1ccc(NC(=O)C(Cc2ccccc2)c2ccccc2)cn1)NO` (stereo not drawn) here?
Answer: Its value is 6.4.

Question: What about the EC50 [22] of the same compound?
Answer: Its EC50 is 350 nM.

Question: With `COc1cc2c(NC3CCN(C(C)C)CC3)nc(C3CCCCC3)nc2cc1OCCCN1CCCC1` as the compound, how does the Activity [19] read?
Answer: Its Activity is 35%.

Question: What about the Activity [20] of the same compound?
Answer: Its Activity is 22%.

Question: Which “fold change (FC)” value [23] does the source give for `CC[C@@H]1C(=O)N(C)c2cnc(Nc3ccc(C(=O)NC4CCN(C)CC4)cc3OC)nc2N1C1CCCC1` [BI-2536] here?
Answer: The value was 177.

Question: What about the “fold change (FC)” value [24] of the same compound?
Answer: Its value is 261.

Question: With `O=C(CCCCCCC(=O)Nc1ccccc1)NO` [VORINOSTAT] as the compound, how does the Activity [25] read?
Answer: Its Activity is 3.2%.
